Assay results: patent US20260234651A1, “ACETYL-COA CARBOXYLASE INHIBITOR RESISTANT SORGHUM” (PIONEER HI-BRED INTERNATIONAL, INC., priority 2023, published 2026)

Legend:
Format in all cases: in vivo, Sorghum bicolor
[1] = test system: F1 Hybrid 1_W2032C (single copy of W2032C ACCase); test: Field tolerance test, Quizalofop-P-ethyl (Assure II) spray; settings: 1 copy, 1-9 score, 1 dead, 9 no visible response
Protocol: (§1) The ACCase edited plants generated in Example 1 were outcrossed with 3 male sterile lines in a controlled environment. The F1 plants which contain a single copy of the W2032C edit in the ACCase gene and the edited elite inbred line containing 2 copies of the W2032C ACCase (hereinafter referred to as […]) along with the non-edited elite inbred (wt control) and the 3 male sterile lines were tested in the field for efficacy. Four short rows, each row with ~100 seedlings, were planted for each variety in replicate. Once the plants reached the 5-6 leaves stage, replicate 1 for each variety was treated with a 1× dose of Assure II (Quizalofop-P-ethyl) and replicate 2 for each variety was treated with a 2× dose of Assure II (Quizalofop-P-ethyl). Plants were then scored for tolerance at 7- and 14-days post application. The plots were scored by giving a 1-9 score to each plot, with 1 being dead and 9 no visible response.
(§2) The PH2545MW_W2032C was given score of 7 with 1× dose of Quizalofop-P-ethyl application (Table 4), as some twisting of the leaves due to herbicide injury was observed, however, after a week or so the twisting of the leaves may not be visible anymore because they were growing out of it, which may be indicated by the score change from 5 to 6 at day 7 and day 14 post 2× dose of Quizalofop-P-ethyl application.

[2] = test system: F1 Hybrid 2_W2032C (single copy of W2032C ACCase); test: as above; settings: 1 copy, 1-9 score, 1 dead, 9 no visible response
Protocol: as §1, §2

[3] = test system: F1 Hybrid 3_W2032C (single copy of W2032C ACCase); test: as above; settings: 1 copy, 1-9 score, 1 dead, 9 no visible response
Protocol: as §1, §2

Male Sterile 1_WT = test: as above; settings: 0 copies, 1-9 score, 1 dead, 9 no visible response
Protocol: as §1, §2

Male Sterile 2_WT = test: as above; settings: 0 copies, 1-9 score, 1 dead, 9 no visible response
Protocol: as §1, §2

Male Sterile 3_WT = test: as above; settings: 0 copies, 1-9 score, 1 dead, 9 no visible response
Protocol: as §1, §2

[4] = test system: elite inbred_W2032C (2 copies of W2032C ACCase); test: as above; settings: for 7-day Post Application Score / 14-day Post Application Score: elite inbred_W2032C, 2 copies
Protocol: as §1, §2

[5] = test system: elite inbred_WT (non-edited elite inbred, wt control); test: as above; settings: 0 copies W2032C, 1-9 score, 1 dead, 9 no visible response
Protocol: as §1, §2

[6] = test system: homozygous ACCase edited T1 plants; test: Spray test of T1 plants with quizalofop-p-ethyl; settings: all 19 homozygous ACCase edited T1 plants, 8-leaf stage, 7 fl. ounce (0.034-0.083 lb ai)
Source text: (§3) ACCase edited T1 seeds were planted in flats, all seeds germinated and were heathy looking. Additionally, they were all able to produce T2 seeds with high seed count setting. Nineteen homozygous ACCase edited T1 plants at the 8-leaf stage were sprayed with quizalofop-p-ethyl at a rate of 7 fl. ounce (0.034-0.083 lb ai), which is the average dose from the Assure II label. […] A subset of the T1 plants after the spray test were kept to maturity and all produced T2 seeds with good seed setting. In contrast, the wild-type control plants were all susceptible to the quizalofop-p-ethyl spray and died.

wild-type control plants = test: Spray test of T1 plants with quizalofop-p-ethyl; settings: 7 fl. ounce (0.034-0.083 lb ai), all died
Source text: as §3

[7] = test system: control plants without the W2032C ACCase edit; test: Field tolerance test, summary in words; settings: all plants dead at 10-14 days post spray
Protocol: as §1

[8] = test system: three F1 hybrids with a single copy of the W2032C ACCase edit; test: Field tolerance test, summary in words; settings: 1x or 2x Assure II
Protocol: as §1

[9] = 1x dose, 1-9 score, 1 dead, 9 no visible response
[10] = 2x dose, 1-9 score, 1 dead, 9 no visible response

CCOC(=O)[C@@H](C)Oc1ccc(Oc2cnc3cc(Cl)ccc3n2)cc1 [Quizalofop-P-ethyl]
resistance (tolerance): response of plants to the herbicide spray [6]
some tolerance: tolerance to the herbicide in the field [8]
no tolerance: tolerance to the herbicide in the field [7]
2: 7-day Post Application Score (Male Sterile 1_WT; 1x dose) | 7-day Post Application Score (Male Sterile 1_WT; 2x dose) | 7-day Post Application Score (Male Sterile 2_WT; 1x dose) | 7-day Post Application Score (Male Sterile 2_WT; 2x dose) | 7-day Post Application Score (Male Sterile 3_WT; 2x dose)
6: 14-day Post Application Score [4, 10]
1: 14-day Post Application Score (Male Sterile 1_WT; 1x dose) | 14-day Post Application Score (Male Sterile 1_WT; 2x dose) | 14-day Post Application Score (Male Sterile 2_WT; 1x dose) | 14-day Post Application Score (Male Sterile 2_WT; 2x dose) | 14-day Post Application Score (Male Sterile 3_WT; 1x dose) | 14-day Post Application Score (Male Sterile 3_WT; 2x dose) | 14-day Post Application Score ([5]; 1x dose) | 14-day Post Application Score ([5]; 2x dose)
tolerance: tolerance to the herbicide in the field ([4]; inbred_W2032C plants, 1x or 2x Assure II at 5-6 leaves stage)
7: field tolerance score (day not stated) ([4]; PH2545MW_W2032C, 1x dose, some twisting of the leaves, 1-9 score, 1 dead, 9 no visible response) | 7-day Post Application Score [4, 9] | 14-day Post Application Score [4, 9]
susceptible: response of plants to the herbicide spray (wild-type control plants)
4: 14-day Post Application Score ([1]; 1x dose) | 7-day Post Application Score ([1]; 2x dose) | 14-day Post Application Score ([2]; 1x dose) | 14-day Post Application Score ([3]; 2x dose)
5: 7-day Post Application Score ([1]; 1x dose) | 7-day Post Application Score ([2]; 1x dose) | 7-day Post Application Score ([2]; 2x dose) | 7-day Post Application Score ([3]; 1x dose) | 7-day Post Application Score ([3]; 2x dose) | 7-day Post Application Score [4, 10]
3: 14-day Post Application Score ([1]; 2x dose) | 14-day Post Application Score ([2]; 2x dose) | 14-day Post Application Score ([3]; 1x dose) | 7-day Post Application Score (Male Sterile 3_WT; 1x dose) | 7-day Post Application Score ([5]; 1x dose) | 7-day Post Application Score ([5]; 2x dose)
